We go through 27 compounds from PubChem BioAssay AID434946 (Broad Institute, 2010).

Each structure is given as a SMILES string. Activity calls are given as the source filed them.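 Rule for the calls: active = compounds lowering the growth signal with a fitted EC50 no more than tenfold above the top dose; inconclusive = flat fit with partial effect, or a poor fit; inactive = the rest.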 Where only a bound is given, the exact number is not on record here.

The test system of this assay is NIH 3T3 fibroblast viability, Alamar Blue fluorescence, 48 h. In words: mammalian fibroblast viability loss, compound alone – cell-based, alamar blue fluorescence, no fluconazole, cytotoxicity control for Candida fluconazole-potentiator project, dose response (AID 434946).

One may read the EC50 as the concentration giving half of the maximal effect. On to `CC(C)COCc1ccc(O)c2ncccc12`, for which the EC50 is 19.5 µM. Consider `O=C(Nc1nnc(-c2ccco2)o1)c1ccc(Cl)cc1`, for which the EC50 is > 26 µM (inactive). Next, `COc1ccc(-n2nc(C(=O)NCC(=O)N3CCN(c4ccccc4)CC3)c3ccccc3c2=O)c(OC)c1`: > 26 µM (inactive); `O=C(Nc1nnc(CCc2ccccc2)s1)c1ccco1`: > 26 µM (inactive).

With `c1ccc2c(c1)OCC(CNc1ncnc3sccc13)O2` (configuration not stated), the EC50 is > 26 µM (inactive). Next, `Cc1ccc(C(=O)c2coc3c2C(=O)C(=O)c2ccccc2-3)cc1`: > 26 µM (inactive); `O=C(Nc1nnc(-c2ccc3c(c2)CCCC3)o1)c1ccc(Cl)cc1Cl`: 18.4 µM; `O=C(Nc1sc2c(c1C(=O)c1ccc(Cl)cc1)CCCC2)c1cccnc1`: > 26 µM (inactive). Under `Cc1ccc(Nc2nc(N)c([N+](=O)[O-])c(N3CCC(C)CC3)n2)cc1C` stands > 26 µM (inactive). With `CCOC(=O)N1C(=O)C2(CCCCC2)N(c2ccc(C)cc2)C1=S`, the EC50 is 0.888 µM. `O=C1/C(=C\c2ccccc2)CCc2c1[nH]c1ccccc21`: the EC50 was > 26 µM (inactive).

In the case of `Nc1nccnc1C(=O)Nc1nnc(SCc2ccc(Cl)cc2)s1`, the EC50 is > 26 µM (inactive). Next, `COc1cc2c(cc1NC(=O)c1ccco1)CCCC2`: > 26 µM (inactive); `Cc1oc2c(F)c(F)c(F)c(F)c2c1S(=O)(=O)Nc1cccc(C(F)(F)F)c1`: > 26 µM (inactive). Take `CC(C)N1CCc2c(sc(NC(=O)c3nc4ccccc4s3)c2C(N)=O)C1`: the EC50 is > 26 µM (inactive).

On to `O=C(NNC1=C(C(=O)C(F)(F)F)CCC1)c1ccc(Cl)cc1`, for which the EC50 was > 26 µM (inactive). On to `O=C(Nc1nc(-c2ccccn2)cs1)c1ccc(Br)s1`, for which the half-maximal effective concentration (EC50) was 11.9 µM. On to `COc1ccc(-c2nnc(NC(=O)c3ccc(F)cc3)o2)cc1`, for which the EC50 was > 26 µM (inactive).

Consider `CCOC(=O)c1c(-c2ccccc2Cl)cn2ccccc12`, for which the EC50 was > 26 µM (inactive).

Take `Clc1ccc2c(c1)C(c1cccs1)=NNC(c1cccnc1)=N2`: the EC50 was > 26 µM (inactive).

Take `Cc1ccc(/C=C/C(=O)c2ccccc(=O)c2O)cc1C`: the EC50 is > 26 µM (inactive).

Take `Cc1nc2ccccc2cc1OCc1ccc(F)cc1`: the EC50 is > 26 µM (inactive). Turning to `O=C(Oc1c(Cl)cc(Cl)c2cccnc12)c1cccs1`, the EC50 is 1.98 µM. Next, `CCCC(=O)NC(c1ccc(Cl)cc1)c1ccc2cccnc2c1O` (configuration not stated): 21.3 µM. In the case of `O=C(Nc1nnc(SCc2ccc(Cl)cc2)s1)c1ccc2ccccc2n1`, the EC50 was > 26 µM (inactive). With `Cc1ccc(C(=O)Nc2cccc(-c3cn4ccccc4n3)c2)cc1`, the EC50 was > 26 µM (inactive). Consider `CCc1ccc2c(c1)/C(=C/C(=O)c1cccs1)C(=O)N2`, for which the EC50 is > 26 µM (inactive).
